Assay results as given in PubChem BioAssay AID2060901 (Molecular Pharmacology Branch, DTP, NCI, 2025).

System: 422866-222-R5-J1-PDC complex spheroids viability
Assay: Anticancer human tumor 422866-222-R5-J1-PDC patient-derived pancreatic adenocarcinoma cell line growth inhibition [RAS]
Conditions: for IC50: curve of first compound; for viability, T/C: stronger effect = lower value
Procedure, shortened: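 Multi-cell-type spheroids: tumor cells plus HUVEC endothelial cells and mesenchymal stem cells. RAS-pathway inhibitors were combined with targeted agents, each dosed in half-log steps down from clinical Cmax, or from 10 microM when Cmax was unknown.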

[1] = second compound 0.00316 µM, first compound 0.0316 µM
[2] = second compound 0.00316 µM, first compound 0.1 µM
[3] = second compound 0.00316 µM, first compound 0.316 µM
[4] = second compound 0.00316 µM, first compound 1 µM
[5] = second compound 0.01 µM, first compound 0.0316 µM
[6] = second compound 0.01 µM, first compound 0.1 µM
[7] = second compound 0.01 µM, first compound 0.316 µM
[8] = second compound 0.01 µM, first compound 1 µM
[9] = second compound 0.0316 µM, first compound 0.0316 µM
[10] = second compound 0.0316 µM, first compound 0.1 µM
[11] = second compound 0.0316 µM, first compound 0.316 µM
[12] = second compound 0.0316 µM, first compound 1 µM
[13] = second compound 0.1 µM, first compound 0.0316 µM
[14] = second compound 0.1 µM, first compound 0.1 µM
[15] = second compound 0.1 µM, first compound 0.316 µM
[16] = second compound 0.1 µM, first compound 1 µM
[17] = second compound 0.316 µM, first compound 0.0316 µM
[18] = second compound 0.316 µM, first compound 0.1 µM
[19] = second compound 0.316 µM, first compound 0.316 µM
[20] = second compound 0.316 µM, first compound 1 µM
[21] = second compound 1 µM, first compound 0.0316 µM
[22] = second compound 1 µM, first compound 0.1 µM
[23] = second compound 1 µM, first compound 0.316 µM
[24] = second compound 1 µM, first compound 1 µM
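Further: spheroids exposed to compounds for 7 days.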
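Wherever viability, T/C is given: 100% = DMSO vehicle control viability.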

With `CC1(O)CCCC1n1c(=O)c(C(F)F)cc2cnc(NC3CCN(S(C)(=O)=O)CC3)nc21` (centres undefined) + C=CC(=O)N1CCN(c2nc(OCC3CCCN3C)nc3c(F)c(-c4nc(N)cc(C)c4C(F)(F)F)c(Cl)cc23)C(C)C1 the IC50 (second compound 0.00316 µM) was < 31.6 nM, the IC50 (second compound 0.01 µM) was < 31.6 nM and the IC50 (second compound 0.0316 µM) was < 31.6 nM. The IC50 (second compound 0.1 µM) was < 31.6 nM, the IC50 (second compound 0.316 µM) was < 31.6 nM and the IC50 (second compound 1 µM) was < 31.6 nM. It also gave a viability, T/C [1] of 32.6%, a viability, T/C [2] of 25.6% and a viability, T/C [3] of 26%. The viability, T/C [4] was 31.4%, the viability, T/C (second compound 0.00316 µM, first compound 3.16 µM) was 33.3% and the viability, T/C (second compound 0.00316 µM, first compound 10 µM) was 33.1%. It also gave a viability, T/C [5] of 27.6%, a viability, T/C [6] of 25.8% and a viability, T/C [7] of 28.1%. For the same compound, the viability, T/C [8] was 25.4%, the viability, T/C (second compound 0.01 µM, first compound 3.16 µM) was 30.3% and the viability, T/C (second compound 0.01 µM, first compound 10 µM) was 33.9%. The viability, T/C [9] was 33.6%, the viability, T/C [10] was 20.7% and the viability, T/C [11] was 22.5%. It also gave a viability, T/C [12] of 21.6%, a viability, T/C (second compound 0.0316 µM, first compound 3.16 µM) of 26.5% and a viability, T/C (second compound 0.0316 µM, first compound 10 µM) of 24.9%. It also gave a viability, T/C [13] of 18.4%, a viability, T/C [14] of 19.9% and a viability, T/C [15] of 22.1%. For the same compound, the viability, T/C [16] was 23%, the viability, T/C (second compound 0.1 µM, first compound 3.16 µM) was 28% and the viability, T/C (second compound 0.1 µM, first compound 10 µM) was 29.3%. It also gave a viability, T/C [17] of 21.9%, a viability, T/C [18] of 20.4% and a viability, T/C [19] of 23.6%. It also gave a viability, T/C [20] of 23.8%, a viability, T/C (second compound 0.316 µM, first compound 3.16 µM) of 29.7% and a viability, T/C (second compound 0.316 µM, first compound 10 µM) of 35.3%. The viability, T/C [21] was 20.6%, the viability, T/C [22] was 20.3% and the viability, T/C [23] was 23.9%. It also gave a viability, T/C [24] of 23.4%, a viability, T/C (second compound 1 µM, first compound 3.16 µM) of 30.6% and a viability, T/C (second compound 1 µM, first compound 10 µM) of 40.1%.
For `CCN1CCN(Cc2ccc(Nc3ncc(F)c(-c4cc(F)c5nc(C)n(C(C)C)c5c4)n3)nc2)CC1` + C=CC(=O)N1CCN(c2nc(OCC3CCCN3C)nc3c(F)c(-c4nc(N)cc(C)c4C(F)(F)F)c(Cl)cc23)C(C)C1, the IC50 (second compound 0.00316 µM) was < 3.16 nM, the IC50 (second compound 0.01 µM) was < 3.16 nM and the IC50 (second compound 0.0316 µM) was < 3.16 nM. The IC50 (second compound 0.1 µM) was < 3.16 nM, the IC50 (second compound 0.316 µM) was < 3.16 nM and the IC50 (second compound 1 µM) was < 3.16 nM. It also gave a viability, T/C (second compound 0.00316 µM, first compound 0.00316 µM) of 25.2%, a viability, T/C (second compound 0.00316 µM, first compound 0.01 µM) of 32.4% and a viability, T/C [1] of 26.4%. For the same compound, the viability, T/C [2] was 21%, the viability, T/C [3] was 31.8% and the viability, T/C [4] was 36.3%. It also gave a viability, T/C (second compound 0.01 µM, first compound 0.00316 µM) of 25.3%, a viability, T/C (second compound 0.01 µM, first compound 0.01 µM) of 24.6% and a viability, T/C [5] of 24.8%. It also gave a viability, T/C [6] of 23.3%, a viability, T/C [7] of 25.8% and a viability, T/C [8] of 30.3%. For the same compound, the viability, T/C (second compound 0.0316 µM, first compound 0.00316 µM) was 22.7%, the viability, T/C (second compound 0.0316 µM, first compound 0.01 µM) was 22.1% and the viability, T/C [9] was 22.5%. For the same compound, the viability, T/C [10] was 18.5%, the viability, T/C [11] was 27.8% and the viability, T/C [12] was 30.5%. For the same compound, the viability, T/C (second compound 0.1 µM, first compound 0.00316 µM) was 24.4%, the viability, T/C (second compound 0.1 µM, first compound 0.01 µM) was 22.2% and the viability, T/C [13] was 21%. It also gave a viability, T/C [14] of 20.7%, a viability, T/C [15] of 24.5% and a viability, T/C [16] of 31%. It also gave a viability, T/C (second compound 0.316 µM, first compound 0.00316 µM) of 18.9%, a viability, T/C (second compound 0.316 µM, first compound 0.01 µM) of 20.2% and a viability, T/C [17] of 20.3%. The viability, T/C [18] was 21.7%, the viability, T/C [19] was 27.3% and the viability, T/C [20] was 30.4%. It also gave a viability, T/C (second compound 1 µM, first compound 0.00316 µM) of 22.7%, a viability, T/C (second compound 1 µM, first compound 0.01 µM) of 20.9% and a viability, T/C [21] of 23.2%. For the same compound, the viability, T/C [22] was 21.2%, the viability, T/C [23] was 24.9% and the viability, T/C [24] was 37.9%.
